Data published in patent US6562844B2, “Oxazolidinone combinatorial libraries, compositions and methods of preparation” (Pharmacia & Upjohn Company, priority 1998, dated 2003).
≈ marks a conversion by molar mass, not a printed value.

Tested on: S. aureus
Assay: Antimicrobial activity MIC, microdilution whole cell assay, S. aureus
Assay type: cell-based
Conditions: Staphylococcus aureus; standard whole cell assay; read-out: MIC against S. aureus
Description: Assay Protocol for Antimicrobial Activity. Minimum inhibitory concentrations (MICs) were determined using the microdilution method in 96-well format plates. Compounds were suspended in DMSO at 5 or 10 mg/ml and stored at 4° C. until used. They were diluted in Mueller-Hinton Broth (MHB) or Trypticase Soy Broth (TSB) and used for MIC determination. The range of concentrations tested was 64-0.0625 μg/ml final concentration using a two-fold dilution system.
The inoculum was prepared from cells grown on Trypticase Soy Agar (TSA) and incubated overnight at 35° C., 5 to 10 colonies were used to inoculate MHB or TSB broths, and the culture was incubated overnight at 35° C. The overnight culture was diluted 1:10, incubated for one hour at 35° C., diluted to the appropriate inoculum size and applied to the wells containing broth and test compound. Inoculum sizes were 1×10^5 to 5×10^5 CFU/ml. Strains used included P. aeruginosa VPAE1001, E. faecium V VEFA1001, E. faecium VanA VEFA1002, S. aureus VSAU1003, S. aureus MRSA VSAU1004, E. coli VEC05, and E. coli (arc-) VEC05.
Plates were incubated at 35° C. for 48 hours and MIC were recorded after 18 hours of incubation, for bacteria, and 48 for yeasts.

Q: With `CON=Cc1ccc(/C=C/C(=O)NC[C@H]2CN(c3ccc(C(N)=O)c(F)c3)C(=O)O2)cc1` as the compound, how does the MIC read?
A: ~0.5 µg/mL (≈ 1.14 µM)
